Measured values: paper PMC11897524 (Frontiers in Pharmacology, 2025)

Key:
BRD4 [1] = tested on: BRD4; set-up: method as in Boi et al., 2015; conditions: BRD4 inhibitor; ref Boi et al., 2015; read-out: IC50 value as reported; cited from earlier work
BRD4 [2] = target: T1, BRD4 (Homo sapiens, UniProt O60885); assay: Microscale thermophoresis (MST) assay; format: binding; set-up: purchased Abcam; conditions: MST
BRD4 [3] = target: T1, BRD4; assay: AlphaScreen BRD4 binding inhibition assay; set-up: purchased Abcam
STAT3 [4] = target: T2, STAT3 (Homo sapiens, UniProt P40763); assay: Microscale thermophoresis (MST) assay; format: binding; set-up: purchased Abcam; conditions: MST
Method: The MST experiments were performed using the Monolith NT.115 instrument. BRD4 and STAT3 proteins were labeled with the Lys labeling kit at the final concentration of 100 nM. The compounds, previously suspended in 100% DMSO, were diluted in a buffer containing 20 mM Tris·HCl (pH 7.5), 100 mM NaCl, and 3 mM DTT, achieving a final DMSO concentration of 5%. The compounds were gradient-diluted in 1:1 dilution and starting from 100 μM. The samples were loaded into MST-standard glass capillaries. All the measurements were performed in triplicate using automatically assigned 50% MST power and 20% LED power. Data analysis was performed using GraphPad Prism 7.0 software.

STAT3 [5] = target: T2, STAT3; assay: STAT3 binding inhibition assay; set-up: purchased Abcam
CAKI-2 cells = assay: MTT cytotoxicity assay; format: cell-based, human; conditions: Homo sapiens, CAKI-2, cell growth, 48 h treatment, read-out: IC50 (μM) ± SD CAKI-2
Method: Human normal renal cortical proximal tubular epithelial cell line HK-2 and human renal carcinoma cell lines CAKI-2, SLR-23, 769-P, A704 and RCC4 were previously purchased from the American Type Culture Collection (ATCC, Manassas, VA, USA) or the European Collection of Cell Cultures (ECACC, Salisbury, United Kingdom). HK2, A704, and RCC4 cells were maintained in high glucose DMEM supplemented with 10% FBS and 1% penicillin/streptomycin. SLR-23 and […] cells were cultured in RPMI-1640 medium with 10% FBS and 1% penicillin/streptomycin. CAKI-2 cells were maintained in McCoy’s 5A medium supplemented with 10% FBS and 1% penicillin/streptomycin. All the cell lines were cultured at 37°C in a humidified atmosphere of 5% CO2 and 95% air.
The effect of hit compounds on cytotoxicity was determined as previously reported ([Ding et al., 2020]). In brief, cells treated with the tested compounds were added with MTT reagent to form formazan crystals, and then the optical density (OD) values at 570 nm were determined after the crystals were dissolved in DMSO. […] Next, the values of IC50 of the selected compounds against more RCC cell lines were determined. The 5 × 10^3 cells in 100 μL culture medium were injected into each well of a 96-well plate and cultured overnight. Add different concentrations of compounds and incubate for 48 h. Then 100 μL of MTT (0.5 mg/mL) solution was added to the 96-well plate and maintained at 37°C for 4 h. Finally, 200 μL of DMSO was added and shaken for 10 min. The OD values at 570 nm were determined by a Synergy 4 microplate reader.

T2 sequence (P40763 whole entry): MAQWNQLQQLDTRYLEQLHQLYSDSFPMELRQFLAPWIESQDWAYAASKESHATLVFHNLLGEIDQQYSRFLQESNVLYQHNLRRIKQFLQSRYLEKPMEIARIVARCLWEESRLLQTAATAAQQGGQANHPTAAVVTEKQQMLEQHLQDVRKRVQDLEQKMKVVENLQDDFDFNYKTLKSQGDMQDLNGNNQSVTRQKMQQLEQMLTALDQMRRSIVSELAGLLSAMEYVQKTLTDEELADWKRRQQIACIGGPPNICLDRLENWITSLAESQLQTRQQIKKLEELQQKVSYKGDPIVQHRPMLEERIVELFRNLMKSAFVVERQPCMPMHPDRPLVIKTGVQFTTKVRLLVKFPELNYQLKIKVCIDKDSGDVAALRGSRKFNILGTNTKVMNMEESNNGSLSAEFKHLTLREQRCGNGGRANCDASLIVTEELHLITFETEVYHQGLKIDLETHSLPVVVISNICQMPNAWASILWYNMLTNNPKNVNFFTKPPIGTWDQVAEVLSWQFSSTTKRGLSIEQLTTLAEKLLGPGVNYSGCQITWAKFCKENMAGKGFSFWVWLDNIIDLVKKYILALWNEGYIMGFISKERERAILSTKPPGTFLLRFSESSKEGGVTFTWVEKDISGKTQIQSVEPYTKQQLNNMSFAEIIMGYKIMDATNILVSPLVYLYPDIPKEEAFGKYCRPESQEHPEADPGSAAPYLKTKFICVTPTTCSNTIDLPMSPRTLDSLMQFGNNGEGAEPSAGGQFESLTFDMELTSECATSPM

Structure (SMILES) | Kd (BRD4 [2]) [nM] | IC50 (BRD4 [3]) [nM] | Kd (STAT3 [4]) [nM] | IC50 (STAT3 [5]) [nM] | STAT3 (IC50, nM) (STAT3 [5]) | IC50 (BRD4 [1]) [nM] | IC50 (CAKI-2 cells) [µM]
Cc1sc2c(c1C)C(c1ccc(Cl)cc1)=N[C@@H](CC(=O)Nc1ccc(O)cc1)c1nnc(C)n1-2 [OTX-015] |  |  |  |  |  | ~92 | 
CCS(=O)(=O)Cc1cnc(Oc2c(F)cc(F)cc2OC[C@@H]2CCC[C@H](COc3ccc(/C=C/c4cc(OC)cc(OC)c4)cc3)N2)c(-c2cc(C)c3c(=O)[nH]ccn23)c1 [BST-3] | 5.37 ± 0.49 | 7.09 ± 0.53 | 8.42 ± 0.38 | 11.3 ± 0.95 |  |  | 
COc1cc(OC)c2c(=O)[nH]c(-c3cc(C)c(OCCO)c(C)c3)nc2c1 [RVX-208, reference compound] |  |  |  |  | no inhibition |  | 3.71 ± 0.42

Second part, led by results:

Kd (BRD4 [2]) [nM] | IC50 (BRD4 [3]) [nM] | Kd (STAT3 [4]) [nM] | IC50 (STAT3 [5]) [nM] | STAT3 (IC50, nM) (STAT3 [5]) | Structure (SMILES) | IC50 (BRD4 [1]) [nM] | IC50 (CAKI-2 cells) [µM]
12.3 ± 1.16 | 15.7 ± 1.31 | 16.4 ± 0.95 | 20.8 ± 1.94 |  | CCS(=O)(=O)Cc1cnc(Oc2c(F)cc(F)cc2OCc2nc(COc3ccc(/C=C/c4cc(OC)cc(OC)c4)cc3)c[nH]2)c(-c2cc(C)c3c(=O)[nH]ccn23)c1 [BST-1] |  | 
3.62 ± 0.25 | 4.64 ± 0.17 | 28.7 ± 3.71 | 27.2 ± 2.82 |  | CCS(=O)(=O)Cc1cnc(Oc2c(F)cc(F)cc2O/C=C\CC(=O)COc2ccc(/C=C/c3cc(OC)cc(OC)c3)cc2)c(-c2cc(C)c3c(=O)[nH]ccn23)c1 [BST-2] |  | 
9.72 ± 0.84 | 10.1 ± 1.15 | 13.7 ± 0.98 | 17.8 ± 1.24 |  | CCS(=O)(=O)Cc1cnc(Oc2c(F)cc(F)cc2OCC2CCC(COc3ccc(C=Cc4cc(OC)cc(OC)c4)cc3)N2)c(-c2cc(C)c3c(=O)[nH]ccn23)c1 (stereo not shown) [BST-5] |  | 
